Results taken from US20110105380A1, “Protection of Nano-Scale Particles from Immune Cell Uptake” (THE TRUSTEES OF THE UNIVERSITY OF PENNSYLVANIA, priority 2009, published 2011).

Tests used:
THP-1 macrophages = assay: Phagocytosis of IgG-opsonized streptavidin beads with or without hCD47 by THP-1 macrophages; format: cell-based, human
Description: The extracellular immunoglobulin-like domains of human CD47 (hCD47) was recombinantly expressed with a spacer domain (Brown et al., 1994, Protein Eng. 7:515-21; Brown et al., 1998, J. Exp. Med. 188:2083-90) plus a C-terminal biotinylation site. […] The beads were opsonized by pretreatment with anti-streptavidin to again induce FcR-mediated phagocytosis (for 45 minutes at 37° C.), and non-engulfed beads were detected with a flourescein anti-Fc against the IgG-opsonin. The number of adherent IgG-opsonized beads per phagocyte was independent of hCD47 (not shown).
For phagocytosis assays, macrophages were plated in 4 cm^2, or 2 cm^2 Lab-Tek II Chambered Coverglass (Nalge Nunc International, Naperville, Ill.) at 1.5×10^5/cm^2. Streptavidin polystyrene beads of different radius: 3.5 μm, 1.1 μm, 160 nm (Spherotech) and 100 nm (Ademtech) were added to macrophages at a ratio of 2:1, 20:1, 277:1, and 2206:1 respectively and incubate at 37° C. for 45 min. […] Non-phagocytosed beads were washed with PBS. Cells were fixed with 5% formaldehyde (Fisher Scientific) for 5 minutes, followed by immediate replacement with PBS. For differentiation of non-internalized beads, beads were labeled with a primary antibody, rabbit anti-streptavidin (Sigma) at 1:1000 in PBS for 20 min at 25° C. A second antibody, anti-rabbit R-PE (Sigma) was added at 1:1000 in PBS to the cells and incubated for an additional 20 minutes at 25° C. Cells were then washed with PBS/0.4% BSA and then quantified by light and fluorescent microscopy. At least 200 cells were scored per well and experiments were repeated at least three times.
For stimulated phagocytosis assays, beads with or without CD47 were incubated with rabbit anti-streptavidin as the IgG opsonin. Beads were opsonized at a concentration 1:1000 for 30 min at 25° C. Opsonized beads were washed 2× and resuspended in 50 μl of PBS/0.4% BSA. Phagocytes were washed with PBS and uningested beads were labeled as described above.
For cytoskeletal involvement at the phagocytic synapse, streptavidin beads opsonized with rabbit anti-streptavidin FITC. Opsonized beads of different sizes were added to THP-1 cells, PMA treated and immediately placed at 4° C. for 10 min to synchronize phagocytosis. […] For studies involving blebbistatin (EMD Biosciences), macrophages were treated for 10 min at 4° C. prior to temperature increase to 37° C. or for 45 min and 37° C. Macrophages treated with DMSO were used to verify no solvent effects.
Beads were opsonized at saturating densities of IgG, and over a 20-fold range of CD47 densities, the number of internalized beads per THP-1 was measured. […] The normal level of CD47 density found on human RBC (Subramanian et al., 2006, Blood 107(6):2548-2556) was indicated by the vertical bars and humans with certain Rhnull phenotypes with reduced levels of CD47 (Mouro-Chanteloup et al., 2003, Blood 101 (1):338-344; Arndt et al., 2004, Br. J. Haematol. 125(3):412-4) was indicated by the vertical bars. The minimum number of CD47 inhibition appears to be consistent across a 30-fold particle size range as depicted by the vertical bars.

[1] = test system: non-muscle myosin IIA at the phagocytic synapse of THP-1 macrophages; assay: Protein localization to the phagocytic synapse (immunofluorescence); format: cell-based, human; details: blebbistatin 50 μM, 10 min pre-incubation
Description: FIG. 4, comprising FIGS. 4A-4B, illustrates CD47 inhibiting myosin localization as similar to blebbistatin. Phagocytic synapses of THP-1 macrophages with IgG-opsonized sheep- or human-RBC (37° C., 10 min) after pre-incubation with blebbistatin (50 μM, 10 min). DMSO was used as a control. FIG. 4A depicts cells fixed and immunostained for non-muscle myosin IIA, F-actin, and Paxillin-Y^118. The scale bars are […]. FIG. 4B depicts quantitation of protein localization to the phagocytic synapse relative to the cytoplasmic intensity set at 1.0 (n=5 cells, ±SD). For cytoskeletal involvement at the phagocytic synapse, streptavidin beads opsonized with rabbit anti-streptavidin FITC. Opsonized beads of different sizes were added to THP-1 cells, PMA treated and immediately placed at 4° C. for 10 min to synchronize phagocytosis. […] For studies involving blebbistatin (EMD Biosciences), macrophages were treated for 10 min at 4° C. prior to temperature increase to 37° C. or for 45 min and 37° C. Macrophages treated with DMSO were used to verify no solvent effects. Immunostaining was performed by permeabilization with 0.1% Triton X-100 in PBS for 20 min before blocking for 1 h with 5% BSA in PBS. Staining with primary antibodies was carried out for 1 h at room temperature in PBS. […] Samples were analyzed by differential interference contrast (DIC) and fluorescence microscopy. […]

Cc1ccc2c(c1)C(=O)C1(O)CCN(c3ccccc3)C1=N2 (stereo not shown) [blebbistatin]
uptake of 100 nm IgG-opsonized particles (THP-1 macrophages; THP-1 treated with 50 μM blebbistatin vs DMSO): decrease in uptake | phagocytosis of CD47-null beads (THP-1 macrophages; blebbistatin 50 μM, 10 min pretreatment of THP-1): inhibited phagocytosis of CD47-null beads to a level similar as hCD47 beads | uptake of 1.1 μm IgG-opsonized particles (THP-1 macrophages; blebbistatin treatment, FIG. 16D): comparable results | enrichment of NMM IIA at synaptic contacts with sheep RBC targets [1]: inhibited enrichment of NMM IIA
